# How the values were obtained:
# Type in all cases: cell-based, mouse
# BASC 3D co-culture = BASC 3D co-culture resorted by FACS for Sca-1 expressing cells; details: 3D cultures after 3 weeks growth, vs DMSO control (FIG. 2)
# [1] = system: BASC (Bronchioalveolar Stem Cell) cultures; experiment: 3D organoid culture of BASC: organoid morphology, lineage and staining
# Text: (§1) Quantification and statistical analysis of organoid morphologies from cultures grown with UNC0638 or DMSO control. *=P<0.05, two tailed independent samples T-test
# Graphs depicts quantification of organoid lineage proportions in UNC0638 and DMSO treated cultures. On the top graph bronchiolar and tracheobronichiolar organoids are counted separately. On the bottom graph these organoids are counted together. *=P<0.05, two tailed independent samples T-test
# FIG. 6 depicts graphs of the quantification of PAS and Alcian Blue Stained Organoids in DMSO and UNC0638 treated Organoids.
# (§2) AT2 cells are only capable of producing alveolar morphological organoids (FIG. 3).
# (§3) UNC0638 treatment reduces the proportion of Sca-1+ve alveolar organoids and increases the proportion of small, undifferentiated organoids. (FIG. 4) 250 nM UNC0638 reduces alveolar colony formation and increase ciliated organoid formation (FIG. 5).
# Organoids with visible movement are observed in control cultures, but are more frequent in 250 nM UNC0638 treated cultures. […] Some organoids in UNC0638 cultures (and some rare organoids in DMSO cultures) can be seen to be visibly moving. They have currents in their lumen causing material within to move around. […] Currents are always counter clockwise, consistent with direction of cilia.
# Ciliated organoids have large amounts of material that stain for PAS and Alcian Blue, like mucus produced by goblet cells in the lung upper airways. This material is likely what can be seen to revolve in the organoids with interior lumen currents. G9a/G1p inhibition increases the proportion and overall number of PAS/Alcian Blue Staining Organoids (FIG. 6). PAS stained cells resemble goblet cells that produce mucus in the upper airway. […] This is precisely the same as the lung upper airways which have a lower layer of p63+ Keratin 5+ stem cells known as basal cells.
# [2] = system: CK1750 and SC241 cell lines; experiment: Flow cytometry screen of adenocarcinoma cell lines for stem cell surface marker Sca-1 with a small molecule library
# Text: The X axis crosses at the level of Sca-1 fluorescence measured in cells with the vehicle only control (DMSO). Bars up thus represent an increase in Sca-1 and Bars down represent a decrease. Each bar represents a different chemical treatment.
# The CK1750 and SC241 cell lines derived from K-ras; p53fl/fl mouse adenocarcinoma tumors are highly enriched for Sca-1 and CD24. These cell lines were screened for factors that alter the expression of Sca1, CD24 or both markers, using the Stem Cell Core's Pilot Known Bioactives library, a small molecule library enriched in inhibitors of chromatin regulators (FIG. 1).
# [3] = system: Sca-1−ve and Sca-1+ve sorted cells; experiment: Quantification of organoid morphologies from Sca-1 sorted cells
# Experimental: as §1, §3
# [4] = system: AT2 (Alveolar Type 2) cultures; experiment: 3D organoid culture of AT2 cells: organoid formation; details: AT2 cultures (FIG. 3)
# Text: as §2
smiles,measurement,setting,value
COc1cc2c(NC3CCN(C(C)C)CC3)nc(C3CCCCC3)nc2cc1OCCCN1CCCC1 [UNC0638],Sca-1 expressing cells among stem cell-derived cells,BASC 3D co-culture,many more Sca-1 expressing cells
same,alveolar colony formation,[1]; 250 nM (FIG. 5),reduces
same,ciliated organoid formation,[1]; 250 nM (FIG. 5),increase
same,organoids with visible movement,"[1]; 250 nM, vs control cultures",more frequent
same,organoids with alveolar morphology,[1]; BASC cultures (FIG. 3),significantly fewer
same,organoids that resemble the large airways of the lung,"[1]; lung stem cell cultures, beating multiciliated, goblet like and P63+ Kertatin 5+ cells",more organoids
same,H&E staining of Acetylated tubulin positive organoids,[1]; treated cultures,many of the cells are muticiliated
same,"organoids that stained with Acetylated tubulin, a marker of Ciliated cells",[1]; treated cultures vs control,significantly more
same,alveolar organoid differentiation,"[1]; vs DMSO control, *=P<0.05, two tailed independent samples T-test (FIG. 4, FIG. 5)",reduces
same,ciliated organoid differentiation,"[1]; vs DMSO, *=P<0.05, two tailed independent samples T-test (FIG. 5)",increases
same,change in Sca-1 on the cell surface,"[2]; among library chemicals, vs DMSO vehicle control (FIG. 1)",largest increase in Sca-1
same,"enrichment for high Sca-1 expressing, TPC-like cells",[2]; flow cytometry screen of adenocarcinoma cell lines,"enriches for high Sca-1 expressing, TPC-like cells"
same,proportion of alveolar organoids,[3]; Sca-1+ve (FIG. 4),reduces
same,"proportion of small, undifferentiated organoids",[3]; Sca-1+ve (FIG. 4),increases
same,organoid formation,[3]; Sca-1−ve sorted cells (FIG. 4),significantly reduces
same,number of organoids,[4],significantly fewer organoids

# From US12129491B2, “Methods and compositions relating to lung cell differentiation” (CHILDREN'S MEDICAL CENTER CORPORATION, priority 2016, dated 2024)
